Entries after “also recorded” stand apart in the source; their conditions may differ.
What was measured:
[1] = test system: Arabidopsis thaliana plants; assay: SOA1 phenotypic analysis of herbicide-treated plants (incl. MIC/Tmic); type: in vivo; conditions: for leafCurling, Dev. / leafTwisting, Dev. / leafWidth, Dev. / matureLeafAnthocyanins, Dev. / matureLeafChlorosis, Dev. / matureLeafNecrosis, Dev. / newLeafAnthocyanins, Dev. / newLeafChlorosis, Dev. / newLeafNecrosis, Dev. / pointedLeaves, Dev.: herbicide sprayed on 21-day plants, numeric value standardized to mock treated; for tMic, Dev.: score for time to full symptoms at minimum inhibitory concentration; for characteristic symptoms (morphological phenotype): herbicide-treated plants
[2] = test system: Arabidopsis thaliana; assay: MOA1 gene expression profiling (22,000 gene array); conditions: 1 hr; for Regulated Genes Following Herbicide Treatment: Down / Regulated Genes Following Herbicide Treatment: Up: p < 0.5; for No. of Lethal Genes Altered: regulated genes compared to list of essential (lethal) genes
[3] = test system: Magnaporthe grisea; type: cell-based
[4] = test system: Arabidopsis thaliana; assay: MOA1 biochemical (metabolite) profiling by LC-MS and GC-MS; conditions: for stress related metabolites: within one hour after spraying
[5] = test system: Arabidopsis plants; conditions: nitrate addition to N-starved plants; cited from earlier work

SMILES	leafCurling, Dev. [1]	leafTwisting, Dev. [1]	leafWidth, Dev. [1]	matureLeafAnthocyanins, Dev. [1]	matureLeafChlorosis, Dev. [1]	matureLeafNecrosis, Dev. [1]	newLeafAnthocyanins, Dev. [1]	newLeafChlorosis, Dev. [1]	newLeafNecrosis, Dev. [1]	pointedLeaves, Dev. [1]	tMic, Dev. [1]	characteristic symptoms (morphological phenotype) [1]	further results
O=C(O)COc1ccc(Cl)cc1Cl [2,4-D]	1	2	−1	1	2	0	0	1	0	0	2		Symptom Class ([1]; phenotype class of three-week-old treated plants (FIG. 12)): 5
O=C(O)c1cc(Oc2ccc(C(F)(F)F)cc2Cl)ccc1[N+](=O)[O-] [Acifluorfen]												Necrotic leaf flecks	
Nc1nc[nH]n1 [Amitrole]												leaf bleaching and leaf enlargement	
COC(=O)NS(=O)(=O)c1ccc(N)cc1 [Asulam]													Regulated Genes Following Herbicide Treatment: Down [2]: 7; Regulated Genes Following Herbicide Treatment: Up [2]: 80; No. of Lethal Genes Altered [2]: 5
CCNc1nc(Cl)nc(NC(C)C)n1 [Atrazine]												rapid and widespread leaf necrosis	
CC(C)N1C(=O)c2ccccc2NS1(=O)=O [Bentazon]												rapid and widespread leaf necrosis	
COc1nc(C)nc(NC(=O)NS(=O)(=O)c2ccccc2Cl)n1 [Chlorsulfuron]												anthocyanin accumulation in the older leaves accompanied by chlorosis of the newly emerging leaves	Regulated Genes Following Herbicide Treatment: Up [2]: 97; No. of Lethal Genes Altered [2]: 8
c1cc[n+]2c(c1)-c1cccc[n+]1CC2 [Diquat]	2	0	−2	0	1	4	0	1	4	1	2	rapid and widespread leaf necrosis	
CN(C)C(=O)Nc1ccc(Cl)c(Cl)c1 [Diuron]	1	0	−2	0	2	4	0	2	4	1	1	rapid and widespread leaf necrosis	
CP(=O)(O)CCC(N)C(=O)O (centres unmarked) [Glufosinate]	2	1	−2	0	3	0	0	3	0	1	1	Chlorosis and leaf curling	Nitrogen source utilization by M. grisea ([3]; in the presence of glufosinate): only able to utilize glutamine and glutamate as nitrogen sources; Regulated Genes Following Herbicide Treatment: Down [2]: 54; Regulated Genes Following Herbicide Treatment: Up [2]: 296; No. of Lethal Genes Altered [2]: 10; stress related metabolites [4]: Only a few, if any
O=C(O)CNCP(=O)(O)O [Glyphosate]	0	0	0	3	1	3	1	2	0	1	2	anthocyanin accumulation in the older leaves accompanied by chlorosis of the newly emerging leaves	Growth of M. grisea, Tiers 3 and 4 media [3]: nearly identical as compared to Unknown 4; also recorded: inhibited growth of M. grisea when nitrate, nitrite, or glutamate was provided as the sole nitrogen source; Growth inhibition of M. grisea ([3]; glyphosate at 1.0 mg/ml): remediated by inclusion of aromatic amino acids to the media; tyrosine level relative to the control ([4]; after one hour): decreased
CC(C)C1(C)N=C(c2ncccc2C(=O)O)NC1=O (centres unmarked) [Imazapyr]												anthocyanin accumulation in the older leaves accompanied by chlorosis of the newly emerging leaves	stress related metabolites [4]: Only a few, if any
CCc1cnc(C2=NC(C)(C(C)C)C(=O)N2)c(C(=O)O)c1 (centres unmarked) [Imazethapyr]												anthocyanin accumulation in the older leaves accompanied by chlorosis of the newly emerging leaves	
CS(=O)(=O)c1cc(C(F)(F)F)ccc1C(=O)c1cnoc1C1CC1 [Isoxaflutole]													Growth of M. grisea in minimal plus tyrosine and minimal media ([3]; concentrations insufficient to inhibit growth): inhibited in minimal plus tyrosine media, while growth in minimal media was unaffected; alterations in the expression of genes of the homogentisate biosynthetic pathway [2]: not observed; Regulated Genes Following Herbicide Treatment: Down [2]: 370; No. of Lethal Genes Altered [2]: 15; Alpha-tocopherol level relative to the control ([4]; early time points): not significantly changed; tyrosine and phenylalanine level relative to the control ([4]; metabolite data, early time points (1 hr)): up-regulated; also recorded: began to accumulate relative to the control after one hour
CSc1nnc(C(C)(C)C)c(=O)n1N [Metribuzin]												rapid and widespread leaf necrosis	
O=C(O)c1ccccc1C(=O)Nc1cccc2ccccc12 [Naptalam]													Regulated Genes Following Herbicide Treatment: Down [2]: 47; Regulated Genes Following Herbicide Treatment: Up [2]: 50; No. of Lethal Genes Altered [2]: 3
O=[N+]([O-])O [Nitrate, nitrate]													Nitrate Regulation of Glutamate synthetase gene [5]: ↑; Nitrate Regulation of Glutamine synthetase (2) genes [5]: ↑; Nitrate Regulation of MADs Box (2) genes [5]: ↓; Nitrate Regulation of MYB transcription factor gene [5]: ↑; Nitrate Regulation of Malate Dehydrogenase gene [5]: ↑; Nitrate Regulation of Nitrate transporter gene [5]: ↑; Nitrate Regulation of Phosphate transporter gene [5]: ↑; Nitrate Regulation of Transaldolase gene [5]: ↑; Nitrate Regulation of Transketolase gene [5]: ↑
CNc1cnn(-c2cccc(C(F)(F)F)c2)c(=O)c1Cl [Norfluazon, Norflurazon]													stress related metabolites [4]: Only a few, if any
C[n+]1ccc(-c2cc[n+](C)cc2)cc1 [Paraquat]	2	0	−1	0	1	4	0	1	4	1	2	rapid and widespread leaf necrosis	

Reference: patent US20040002842A1, “Methods and systems for analyzing complex biological systems” (priority 2001, published 2004)
